From patent US12660821B2, “Herbicide compositions with epyrifenacil and 2,4-D triethanolamine salt with improved properties” (MONSANTO TECHNOLOGY LLC, priority 2020, dated 2026)

Experiment: Partition coefficient of compound (A) between organic solvent and water (procedure G1, HPLC)
Type: physicochemical
Settings: approx. 25° C.
Method: G1: General Experimental Procedure to Determine the Partition Coefficient of Compound (A) in Solvents
The experimental procedure for the respective solvent is as follows: (1) A solution of 10 g of compound (A) is prepared in 90 g of the respective solvent; (2) An aliquot of 10 g of the solution obtained in step (1) is added to 90 g of water in a glass bottle, which is shaken on a mechanical shaker for 4 hours at ambient temperature (approximately 25° C.); (3) The contents of the glass bottle are permitted to phase separate for 4 days at ambient temperature (approximately 25° C.); and (4) Subsamples of the resulting oil and water phases are taken and analyzed by HPLC to determine the concentrations of compound (A) in oil (Co) and water phases (Cw) respectively. The subsamples are typically centrifuged before HPLC analysis to remove traces of organic solvent from the water phase.
The partition coefficient, analogous to the octanol-water partition coefficient, P, is calculated as Co/Cw. The partition coefficient is conveniently expressed as a logarithm […]=log Co/Cw=P.
The ratio of determined concentrations of compound (A) in the solvent phase and the water phase typically is very large. […]

For `CCOC(=O)COc1ncccc1Oc1cc(-n2c(=O)cc(C(F)(F)F)n(C)c2=O)c(F)cc1Cl` [compound (A), ethyl [3-[2-chloro-4-fluoro-5-(1-methyl-6-trifluoromethyl-2,4-dioxo-1,2,3,4-tetrahydropyrimidin-3-yl)phenoxy]-2-pyridyloxy]acetate], the “compound (A) in the water phase” value (Aromatic 200 ND as organic solvent) was “undetectable” and the “compound (A) in the water phase” value (acetophenone as organic solvent) was “undetectable”.
